Columns and labels:
[1] = tested on: DENV-3; test: Cell-based flavivirus immunodetection assay in BHK-21 cells, DENV-3; conditions: MOI of 0.3, 48 h p.i.
Description: (§1) To investigate this, BHK-21 cells were infected with DENV serotypes 1, 2, 3 or 4 (MOI of 0.3) for 1 h in the presence of 4-HPR or 4-MPR (concentrations as indicated in FIG. 6A). Virus inoculum was removed and fresh media containing the indicated compounds was added. Virus infection rates were determined 48 h p.i. using a cell-based flavivirus immunodetection assay. Briefly, cells were fixed and stained for DENV structural protein, E, followed by addition of Alexa Fluor 488 anti-mouse IgG. Viral antigen quantification was performed using Imagexpress. Data shown are representative of a single experiment

[2] = target: DENV-2 NS5 / IMPα/β (Dengue virus type 2, UniProt P14340); test: AlphaScreen binding of His6-NS5 to IMPα/β heterodimer
Description: AlphaScreen®, a luminescent bead-based assay that measures direct protein-protein interactions, was used to examine the binding of 3 nM His6-NS5 to 10 nM IMPα/β (IMPα/β heterodimer containing biotinylated IMPβ1) in the presence of increasing concentrations of 4-HPR, 4-MPR or ATRA (FIG. 1A), or 4-oxo-4-HPR, 4-HPR or 4-MPR (FIG. 1B). Data are the mean±standard deviation (SD) of triplicate wells from a single typical experiment.
To investigate the specificity of 4-HPR inhibition of NS5-importin association, the binding of 30 nM His6-NS5 to 10 nM IMPα/β, (IMPα/β heterodimer containing biotinylated IMPβ1), 3 nM IMPαΔIBB (biotinylated IMPa with the IMPβ-binding domain removed), or 3 nM biotinylated IMPβ1, in the presence of increasing concentrations of 4-HPR, was investigated.

[3] = tested on: DENV-2; test: Plaque assay in Huh-7 cells, DENV-2; assay type: cell-based; conditions: Dengue virus, DENV2, Huh-7, 48 h, read-out: EC50, infectious virus titre DENV 2
Description: (§2) To ensure the antiviral activity of 4-HPR is not cell-line specific Huh-7 cells were also infected with DENV-1, 2, 3 or 4 (MOI of 0.3) in the presence of increasing concentrations of 4-HPR, with infectious virus titres determined by plaque assay at 48 h p.i.

[4] = tested on: DENV-2; test: Delayed addition in DENV-2 infected Huh-7 cells, NS1 RNA by qPCR; assay type: cell-based; conditions: 7.5 μM added 12 h p.i., at 24 h p.i.
Description: To gain further insight into the mode of action of 4-HPR, the human liver carcinoma cell line, Huh-7 cells were infected with DENV-2 (MOI of 1), followed by delayed addition of drug diluent DMSO (DENV only), 7.5 μM 4-HPR, 7.5 μM 4-MPR or 10 μM NITD008 (a previously described adenosine nucleoside inhibitor), 12 h post infection. Cells were lysed at the indicated times, RNA was extracted by Trizol and analysed by qPCR with fold change in expression of NS1 calculated relative to the untreated control (FIG. 5B). Concurrently, culture medium was collected and viral titres determined by plaque assay (FIG. 5C).

[5] = tested on: DENV-2; test: Time-of-addition DENV-2 assay in Vero cells, intracellular viral RNA by qRT-PCR; assay type: cell-based; conditions: 10 μM for 2 h, added prior to, during, or up to 24 h p.i.
Description: To investigate whether 4-HPR can inhibit DENV-2 replication when added prior to infection or post infection (p.i.), 10 μM drug or DMSO (drug diluent) was added to Vero cells 2 h prior to infection, for 2 h during infection, 2 h p.i., or 24 h p.i. In each instance the drug was incubated with the cells for 2 h then removed. Infections were performed for 2 h (MOI of 1) followed by analysis of intracellular viral RNA by qRT-PCR 48 h p.i. Data shown are the mean+SD from one experiment, representative of three independent assays.

[6] = tested on: DENV-2; test: DENV-2 infectivity assay in Vero cells, viral RNA copies in culture medium by RT-PCR; assay type: cell-based; conditions: MOI of 1
Description: To test the specificity of 4-HPR and 4-oxo-4-HPR for anti-DENV activity Vero cells were infected with DENV-2 with a multiplicity of infection (MOI) of 1, in the presence of drug diluent (untreated) or the indicated compounds (10 μM in FIG. 3A, or 10 μM or 5 μM as indicated in FIG. 3B) for 2 h, followed by removal of the virus/drug inoculums, and addition of fresh 2% FCS maintenance medium. At 24 h post infection (p.i.) the culture medium was collected and the viral RNA extracted using QIAamp viral RNA mini kit (Qiagen). Absolute RNA copies present in each sample were determined by Taqman One Step RT-PCR (Applied Biosystems), as an estimate of virus titre by extrapolation from a standard curve generated from in vitro transcribed DENV RNA. Data shown are the mean+standard error of the mean (SEM) for 3 (FIG. 3A) or 2 (FIG. 3B) independent experiments. Statistical analysis (Student's ttest) was performed using GraphPad Prism software.

[7] = tested on: DENV-2 strain (S221); test: Lethal mouse infection model, AG129 mice infected with mouse adapted DENV-2 strain S221; assay type: in vivo; conditions: 20 mg/kg orally
Source text: Mice have previously been used as an in vivo model for 4-HPR pharmacokinetics. To examine the effect of 4-HPR on DENV infection in vivo, a lethal mouse infection model, which uses a mouse adapted DENV-2 strain (S221), to infect Sv/129 mice deficient in type I and II interferon receptors (AG129) was used (Zellweger et al., 2010, Cell Host Microbe). Viral infection in this system is enhanced by intraperitoneal delivery of a sub-neutralizing concentration of 4G2 antibody 1 day prior to infection, resulting in peak viremia 3 days p.i. and death of infected mice by day 5. Here, mice were treated with 20 mg/kg of 4-HPR, administered orally at the time of infection, then once (QD) or twice (BID) daily for 5 consecutive days. Consistent with previous reports, infected, untreated mice all died by day 5 (FIG. 8B). Once daily treatment of mice with 4-HPR was sufficient to provide protection to 20% of mice, which recovered from the infectious challenge, whereas increasing the dose to 2 treatments daily, improved protection to 70% (7 of 10 mice recovered from the infectious challenge).
Data are the mean+SEM. Statistical analysis (Student's t test) was performed using Graph Pad Prism software (ns, not significant).

[8] = tested on: DENV-2; test: Cell-based flavivirus immunodetection assay in BHK-21 cells, DENV-2; conditions: Dengue virus, DENV2, BHK-21, 48 h, read-out: EC50, DENV-2 replication
Description: as §1

[9] = tested on: DENV-1; test: Cell-based flavivirus immunodetection assay in BHK-21 cells, DENV-1; conditions: MOI of 0.3, 48 h p.i.
Description: as §1

[10] = tested on: DENV-1; test: Plaque assay in Huh-7 cells, DENV-1; assay type: cell-based; conditions: Dengue virus, DENV1, Huh-7, 48 h, read-out: EC50, infectious virus titre DENV 1
Description: as §2

[11] = up to 4,000 mg/m^2/day, daily for 28 days, including in children; cited from earlier work

CC1=C(/C=C/C(C)=C/C=C/C(C)=C/C(=O)Nc2ccc(O)cc2)C(C)(C)CCC1 [4-HPR, N-(4-hydroxyphenyl) retinamide]
EC50, DENV-3 replication [1]: low EC50 | IC50 [2]: 1200 nM | block of association of DENV-2 NS5 with IMPα/β ([2]; 3 nM His6-NS5, 10 nM IMPα/β, increasing concentrations of compound): able to block association | EC50 [3]: 2100 nM | reduction in viral RNA levels (NS1 qPCR) [4]: 1 log | intracellular DENV-2 RNA copies 48 h p.i. [5]: substantial reduction | reduction in viral RNA copies at 24 h p.i. ([6]; 5 μM compound for 2 h during infection): ~1 log | reduction in viral RNA copies at 24 h p.i. ([6]; 10 μM compound for 2 h during infection): 2 log | average plasma viral titre lower than untreated group, 3 days p.i. ([7]; BID treatment group): 65% | average plasma viral titre 3 days p.i. ([7]; QD treatment group): small reduction | protection (mice recovered from the infectious challenge) ([7]; once daily (QD) for 5 days): 20% | protection (mice recovered from the infectious challenge) ([7]; twice daily (BID) for 5 days): 70% | EC50 [8]: 2240 nM | EC50, DENV-1 replication [9]: low EC50 | EC50 [10]: 2600 nM | toxicity profile in cancer treatment [11]: favourable toxicity profiles

— US11752116B2, “Method of viral inhibition” (priority 2013, dated 2023)
